Patent US4940789A, “10,11-dihydro-5-alkyl-12-substituted-10,5-(iminomethano)-5H-d ibenzo[a,d]cycloheptenes as neuroprotectant agents” (priority 1989, dated 1990)
Where two headings read alike, the source gives them in different places.

What was measured:
[1] = Traction reflex deficit (ataxia) in mice; conditions: mouse, in vivo, ip, I.P., read-out: TD50 - Traction Reflex Deficit, I.P. (dose which produced the deficit in 50% of animals tested)
Text: In fact, the separation between a compounds's NMDA-antagonist activity and ataxic activity (often expressed as an "efficacy ratio" of the ED50 's of these two activities) has been extensively used to evaluate its therapeutic usefulness versus its liabilities.
^@ As measured in mice. Defined as the dose which produced the defici

[2] = tested on: NMDA-induced lethality; experiment: NMDA-induced lethality in mice (survival; standard experimental test procedure); assay type: in vivo, male Swiss-albino mice (CD-1 strain); conditions: for ED50: Mus musculus, 0.5 h; for ED50 / ED50 Inhibition of NMDA-Induced Lethality, I.P. (dose required to produce 50% survival rate): NMDA 195 mg/kg i.p., 30 min pretreatment; for Percent of animals which survived at the dose indicated (NMDA-induced lethality): I.P.; for Relative potency, antagonism of NMDA-induced lethality vs ataxia (in words): traction reflex deficit model; for IP/PO Ratio: ED50 inhibition of NMDA-induced lethality, I.P. over P.O.
Method: The mice were pretreated with the representative test compounds followed thirty minutes later with NMDA (195 mg/kg, i.p., the ED90 dose for generalized myoclonus). The mice were then observed for 30 minutes, noting the latency of onset of generalized myoclonus (uncontrollable hind leg scratching or limbs and/or torso muscle jerking with loss of righting reflex) and death. From the latter, the ED50 for survival is determined. In this standard experimental test procedure, the specific compounds tested and their activity, which representatively establish the activity for all the compounds herein, is presented in Table I as follows: […]

[3] = tested on: cell death in cerebral ischemia models; conditions: result in words; cited from earlier work
[4] = result in words; cited from earlier work
[5] = tested on: high-affinity PCP binding site in the NMDA-associated ion channel; conditions: result in words; cited from earlier work
[6] = ip, intraperitoneal injection, read-out: ED50 Inhibition of NMDA-Induced Lethality, I.P. (dose required to produce 50% survival rate)

What does the source list for `CC12CN(CCc3cnccn3)C(Cc3ccccc31)c1ccccc12` (stereo not shown) [Example 4, 10,11-Dihydro-5-methyl-12-(2-pyrazinylethyl)-10,5-(iminomethano)-5H-dibenzo-cycloheptene]?
TD50 [1]: 30 mg/kg; ED50 [2, 6]: 12 mg/kg

Which “Percent of animals which survived at the dose indicated (NMDA-induced lethality)” value (“Percent of animals which survived” for short) ([2]; at 10 mg/kg) does the source give for `CC(=O)N1CC2(C)c3ccccc3CC1c1ccccc12` (stereo not shown) [Example 11, 10,11-Dihydro-5-methyl-10,5-(iminomethano)-5H-dibenzo[a,d]cycloheptene-12-acetamide] here?
Its value is 10%.

For `CN(C)CCCN1CC2(C)c3ccccc3CC1c1ccccc12` (stereo not shown) [Example 5, 10,11-Dihydro-N,N,5-trimethyl-10,5-(iminomethano)-5H-dibenzo[a,d]cycloheptene-12-propanamine], which “Percent of animals which survived” value ([2]; at 100 mg/g (so in the source)) is on record?
Its value is 66%.

For `Cc1cccc(CCN2CC3(C)c4ccccc4CC2c2ccccc23)n1` (stereo not shown) [Example 8, 10,11-Dihydro-5-methyl-12-[2-(6-methyl-2-pyridinyl)ethyl]-10,5-(iminomethano)-5H-dibenzo[a,d]cycloheptene], which TD50 [1] is on record?
Its TD50 is 68 mg/kg.

And the ED50 [2, 6]?
Its ED50 is 13 mg/kg.

Which “Percent of animals which survived” value ([2]; at 20 mg/kg) does the source give for `CC12CN(Cc3ccccn3)C(Cc3ccccc31)c1ccccc12` (stereo not shown) [Example 6, 10,11-Dihydro-5-methyl-12-(2-pyridinylmethyl)-10,5-(iminomethano)-5H-dibenzo[a,d]cycloheptene] here?
The value was 66%.

For `CN1CC[C@@]23CCCC[C@@H]2[C@@H]1Cc1ccc(O)cc13` [Dextrorphan, dextrorphan, reference compound], which TD50 [1] is on record?
Its TD50 is 29 mg/kg.

And the “Efficacy ratio for antagonizing NMDA-induced lethality over ataxia (in words)” value ([2]; comparison with reference NMDA antagonists)?
The value was “essentially the same as that for dextromethorphan”.

And the “ED50 Inhibition of NMDA-Induced Lethality, I.P. (dose required to produce 50% survival rate)” value ([2]; intraperitoneal injection)?
The value was 13 mg/kg.

For `c1ccc(C2(N3CCCCC3)CCCCC2)cc1` [PCP, phencyclidine, reference compound], which “Protection against cell death in cerebral ischemia models” value [3] is on record?
The value was “protects against cell death in cerebral ischemia models”.

And the TD50 [1]?
The TD50 was 2.7 mg/kg.

And the “ED50 Inhibition of NMDA-Induced Lethality, I.P. (dose required to produce 50% survival rate)” value ([2]; intraperitoneal injection)?
The value was 1.9 mg/kg.

What about the “Relative potency, antagonism of NMDA-induced lethality vs ataxia (in words)” value [2] of the same molecule?
Its value is “approximately equipotent”.

For `CC12CN(CCc3ccc4ccccc4n3)C(Cc3ccccc31)c1ccccc12` (stereo not shown) [Example 7, 10,11-Dihydro-5-methyl-12-[2-(2-quinolinyl)ethyl]-10,5-(iminomethano)-5H-dibenzo[a,d]cycloheptene], which ED50 [2, 6] is on record?
The ED50 was over 20 mg/kg.

With `CC12CN(CCc3ccncc3)C(Cc3ccccc31)c1ccccc12` (stereo not shown) [Example 3, 10,11-Dihydro-5-methyl-12-[2-(4-pyridinyl)ethyl]10,5-(iminomethano)-5H-dibenzo[a,d]cycloheptene] as the molecule, how does the TD50 [1] read?
The TD50 was 83 mg/kg.

And the ED50 [2, 6]?
Its ED50 is 18 mg/kg.

Which TD50 [1] does the source give for `CC12CN(CCc3ccccn3)C(Cc3ccccc31)c1ccccc12` (stereo not shown) [Example 2, 10,11-Dihydro-5-methyl-12-[2-(2-pyridinyl)ethyl]10,5-(iminomethano)-5H-dibenzo[a,d]cycloheptene] here?
The TD50 was 67 mg/kg.

What about the “IP/PO Ratio” value [2] of the same molecule?
The value was 0.57.

What about the ED50 [2, 6] of the same molecule?
Its ED50 is 9.8 mg/kg.

With `CC12CN(CCc3ccccc3)C(Cc3ccccc31)c1ccccc12` (stereo not shown) [Example 9, 10,11-Dihydro-5-methyl-12-(2-phenylethyl)-10,5-(iminomethano)-5H-dibenzo[a,d]cycloheptene] as the molecule, how does the “Percent of animals which survived” value ([2]; at 20 mg/kg) read?
The value was 17%.

Which results are given for `CN1CC2(C)c3ccccc3CC1c1ccccc12` (stereo not shown) [Example 1, 10,11-Dihydro-5,12-dimethyl-10,5-(iminomethano)-5H-dibenzo[a,d]cycloheptene]?
TD50 [1]: 13 mg/kg; ED50 [2, 6]: 3.1 mg/kg

With `C[C@]12N[C@H](Cc3ccccc31)c1ccccc12` [MK-801, reference compound] as the molecule, how does the “Generalization for PCP in drug discrimination” value [4] read?
The value was “generalizes for PCP”.

What about the “Protection against cell death in cerebral ischemia models” value [3] of the same molecule?
Its value is “protects against cell death in cerebral ischemia models”.

What about the “Competition for the high-affinity PCP binding site” value [5] of the same molecule?
The value was “competes for the high-affinity PCP binding site”.

What about the TD50 [1] of the same molecule?
Its TD50 is 0.17 mg/kg.

What about the “IP/PO Ratio” value [2] of the same molecule?
Its value is 0.58.

And the ED50 ([2]; oral administration, read-out: ED50 Inhibition of NMDA-Induced Lethality, P.O. (dose required to produce 50% survival rate))?
Its ED50 is 0.32 mg/kg.

And the ED50 [2, 6]?
The ED50 was 0.19 mg/kg.

And the “Relative potency, antagonism of NMDA-induced lethality vs ataxia (in words)” value [2]?
Its value is “no separation”.

Which results are given for `COc1ccc2c(c1)[C@]13CCCC[C@@H]1[C@H](C2)N(C)CC3` [Dextromethorphan, reference compound]?
TD50 [1]: 45 mg/kg; ED50 [2, 6]: 21 mg/kg

For `CC(C)N1CC2(C)c3ccccc3CC1c1ccccc12` (stereo not shown) [Example 10, 10,11-Dihydro-5-methyl-12-(2-propyl)-10,5-(iminomethano)-5H-dibenzo[a,d]cycloheptene], which “Percent of animals which survived” value ([2]; at 10 mg/kg) is on record?
The value was 100%.
